pIC50: −log10 of the molar value.
Assays:
[1] = target: T1, Muscarinic acetylcholine receptor M1 (Homo sapiens, UniProt P11229); test: Displacement of [3H]NMS from human muscarinic M1 receptor expressed in CHO-K1 cells after 1 hr by scintillation counting; assay type: cell-based
T1 sequence (P11229 whole entry): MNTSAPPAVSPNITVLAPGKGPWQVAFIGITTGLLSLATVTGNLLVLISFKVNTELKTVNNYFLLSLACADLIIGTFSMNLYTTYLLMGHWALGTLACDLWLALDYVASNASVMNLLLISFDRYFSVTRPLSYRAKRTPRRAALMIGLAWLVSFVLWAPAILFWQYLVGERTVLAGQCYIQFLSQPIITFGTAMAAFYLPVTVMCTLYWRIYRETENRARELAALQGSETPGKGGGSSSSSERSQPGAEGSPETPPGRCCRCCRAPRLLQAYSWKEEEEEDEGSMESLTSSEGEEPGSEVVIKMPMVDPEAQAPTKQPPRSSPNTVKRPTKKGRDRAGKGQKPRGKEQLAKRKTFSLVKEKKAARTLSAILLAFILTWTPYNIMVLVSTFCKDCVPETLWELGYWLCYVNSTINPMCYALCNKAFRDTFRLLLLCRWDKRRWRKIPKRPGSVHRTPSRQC

[2] = target: Muscarinic acetylcholine receptor M1 and M3 (Homo sapiens) (UniProt P20309+P11229); test: Selectivity ratio of IC50 for human muscarinic M1 receptor to IC50 for human muscarinic M3 receptor
[3] = target: T2, Muscarinic acetylcholine receptor M2 (Homo sapiens, UniProt P08172); test: Displacement of [3H]NMS from human muscarinic M2 receptor expressed in CHO-K1 cells after 1 hr by scintillation counting; assay type: cell-based
T2 sequence (P08172 whole entry): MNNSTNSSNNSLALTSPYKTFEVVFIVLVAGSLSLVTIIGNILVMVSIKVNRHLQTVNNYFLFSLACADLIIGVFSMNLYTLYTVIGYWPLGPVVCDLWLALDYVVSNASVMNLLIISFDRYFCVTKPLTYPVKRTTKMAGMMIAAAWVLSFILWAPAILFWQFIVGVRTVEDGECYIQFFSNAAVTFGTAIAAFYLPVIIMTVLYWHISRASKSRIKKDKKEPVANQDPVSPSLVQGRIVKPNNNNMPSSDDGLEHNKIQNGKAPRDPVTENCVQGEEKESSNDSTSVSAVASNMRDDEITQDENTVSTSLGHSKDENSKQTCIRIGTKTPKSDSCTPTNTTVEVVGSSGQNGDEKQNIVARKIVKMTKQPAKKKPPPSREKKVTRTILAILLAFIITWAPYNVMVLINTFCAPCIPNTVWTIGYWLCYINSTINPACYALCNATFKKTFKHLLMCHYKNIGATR

[4] = target: Muscarinic acetylcholine receptor M3 (Homo sapiens, UniProt P20309); test: Displacement of [3H]NMS from human muscarinic M3 receptor expressed in CHO-K1 cells after 1 hr by scintillation counting; assay type: cell-based
[5] = target: Muscarinic acetylcholine receptors; M2 & M3 (Homo sapiens) (UniProt P20309+P08172); test: Selectivity ratio of IC50 for human muscarinic M2 receptor to IC50 for human muscarinic M3 receptor
Cavia porcellus [6] = test: Inhibition of acetylcholine-induced bronchospasm in anesthetized Dunkin-Hartley guinea pig assessed as time required to recover 50% of maximum inhibitory effect at 1 mg/ml administered via nebulizer; assay type: functional
Cavia porcellus [7] = test: Inhibition of acetylcholine-induced bronchospasm in anesthetized Dunkin-Hartley guinea pig assessed as time required to recover 50% of maximum inhibitory effect at 3 mg/ml administered via nebulizer; assay type: functional

Muscarinic acetylcholine receptor M1 and M3 (Homo sapiens), sequence (P20309 whole entry, looked up, one chain of several): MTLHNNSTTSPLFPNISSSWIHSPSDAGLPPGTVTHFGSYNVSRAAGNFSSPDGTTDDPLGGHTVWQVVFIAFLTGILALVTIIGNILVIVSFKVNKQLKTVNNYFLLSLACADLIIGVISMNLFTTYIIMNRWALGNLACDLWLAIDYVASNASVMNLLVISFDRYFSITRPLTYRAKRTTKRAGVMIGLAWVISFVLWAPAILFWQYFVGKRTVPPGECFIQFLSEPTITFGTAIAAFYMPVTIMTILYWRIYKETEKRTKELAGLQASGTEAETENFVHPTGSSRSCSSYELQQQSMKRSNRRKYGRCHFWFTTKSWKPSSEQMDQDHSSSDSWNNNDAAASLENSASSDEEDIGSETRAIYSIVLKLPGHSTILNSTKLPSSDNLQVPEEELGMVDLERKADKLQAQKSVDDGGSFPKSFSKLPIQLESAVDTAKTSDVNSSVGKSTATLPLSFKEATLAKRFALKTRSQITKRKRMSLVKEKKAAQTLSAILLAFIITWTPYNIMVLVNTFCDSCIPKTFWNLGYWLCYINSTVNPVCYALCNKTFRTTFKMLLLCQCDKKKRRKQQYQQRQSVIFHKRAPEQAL
Muscarinic acetylcholine receptor M3, sequence (P20309 whole entry): as the sequence (P20309 whole entry, looked up, one chain of several) above
Muscarinic acetylcholine receptors; M2 & M3 (Homo sapiens), sequence (P20309 whole entry, looked up, one chain of several): as above

Compound | pIC50 [1] | Ratio IC50 [2] | pIC50 [3] | pIC50 [4] | Ratio IC50 [5] | Time (Cavia porcellus [6]) [h] | Time (Cavia porcellus [7]) [h]
O=C(O[C@H]1CN2CCC1CC2)N1CCc2ccccc2[C@@H]1c1ccccc1 [SOLIFENACIN SUCCINATE] | 7.20 | 0.5 | 6.24 | 6.88 | 4.4 | – | –
O=C(O[C@H]1CN2CCC1CC2)N(CCc1ccccc1)c1ccccc1 | 9.00 | 0.3 | 7.38 | 8.44 | 11.7 | – | –
O=C(O[C@H]1C[N+]2(CCOc3ccccc3)CCC1CC2)N(Cc1ccccc1)c1ccccc1.[Br-] | 8.77 | 1.7 | 8.41 | 9.00 | 3.9 | >6 | –
CC(C)N(C(=O)O[C@H]1CN2CCC1CC2)c1ccccc1 | 6.37 | 0.6 | 5.86 | 6.18 | 2.1 | – | –
Cc1cccc(N(Cc2cc(F)c(F)cc2F)C(=O)O[C@H]2CN3CCC2CC3)c1 | 9.00 | 0.7 | 7.34 | 8.85 | 32.7 | – | –
O=C(O[C@H]1C[N+]2(CCOc3ccccc3)CCC1CC2)N(Cc1ccsc1)c1ccccc1.[Br-] | 9.40 | 2 | 8.80 | 9.70 | 8 | >6 | –
O=C(O[C@H]1C[N+]2(CCOc3ccccc3)CCC1CC2)N(Cc1cc(F)c(F)c(F)c1)c1cccc(F)c1.[Br-] | 8.96 | 1.8 | 7.84 | 9.22 | 24 | >6 | –
CCCCN(Cc1cccs1)C(=O)O[C@H]1CN2CCC1CC2 | 9.10 | 0.04 | 7.12 | 7.75 | 4.3 | – | –
O=C(O[C@H]1CN2CCC1CC2)N(Cc1cccs1)c1ccccc1 | 9.40 | 0.7 | 8.74 | 9.22 | 3 | <4 | –
O=C(O[C@H]1CN2CCC1CC2)N(Cc1cccc(F)c1)c1cccc(F)c1 | 8.82 | 0.6 | 7.57 | 8.62 | 11.2 | – | –
O=C(O[C@H]1C[N+]2(CCOc3ccccc3)CCC1CC2)N(Cc1cccs1)c1ccccc1.[Br-] | 9.40 | 1.3 | 8.96 | 9.52 | 3.7 | >6 | –
Cc1cccc(N(Cc2cc(F)c(F)cc2F)C(=O)O[C@H]2C[N+]3(CCOc4ccccc4)CCC2CC3)c1.[Br-] | 8.62 | 2 | 7.55 | 8.92 | 23.3 | <6 | –
O=C(O[C@H]1C[N+]2(CCCc3ccccc3)CCC1CC2)N(Cc1ccccc1)c1ccccc1.[Br-] | 8.82 | 5 | 8.40 | 9.52 | 13.3 | >6 | –
O=C(O[C@H]1C[N+]2(CCc3ccccc3)CCC1CC2)N(Cc1ccccc1)c1ccccc1.[Br-] | 7.82 | 0.85 | 7.29 | 7.75 | 2.9 | <2 | –
O=C(O[C@H]1CN2CCC1CC2)N(Cc1cc(F)c(F)c(F)c1)c1cccc(F)c1 [TARAFENACIN] | 9.05 | 0.6 | 7.01 | 8.82 | 64.9 | – | –
O=C(O[C@H]1C[N+]2(CCCc3cccs3)CCC1CC2)N(Cc1ccsc1)c1ccccc1.[Br-] | 8.70 | 3.3 | 8.08 | 9.22 | 14 | >6 | –
Cc1ccc(N(Cc2ccccc2)C(=O)O[C@H]2CN3CCC2CC3)cc1 | 7.40 | 0.5 | 6.71 | 7.13 | 2.6 | – | –
O=C(O[C@H]1CN2CCC1CC2)N(Cc1cccs1)Cc1cccs1 | 8.62 | 0.4 | 7.64 | 8.23 | 3.8 | – | –

Compound | pIC50 [1] | Ratio IC50 [2] | pIC50 [3] | pIC50 [4] | Ratio IC50 [5] | Time (Cavia porcellus [6]) [h] | Time (Cavia porcellus [7]) [h]
O=C(Nc1ccccc1-c1ccccc1)OC12CCN(CC1)CC2 | 8.52 | 0.5 | 7.84 | 8.22 | 2.4 | – | –
CCCCN(C(=O)O[C@H]1C[N+]2(CCCc3cccs3)CCC1CC2)c1ccccc1.[Br-] | 8.70 | 3.3 | 7.96 | 9.22 | 18.2 | >6 | –
C[N+]12CCC(CC1)[C@@H](OC(=O)N(Cc1cccs1)c1ccccc1)C2 | 8.04 | 0.5 | 7.48 | 7.73 | 1.8 | – | –
CCCCN(C(=O)O[C@H]1CN2CCC1CC2)c1ccccc1 | 8.96 | 0.2 | 7.64 | 8.37 | 5.3 | <1 | –
O=C(O[C@H]1C[N+]2(CCCc3cccs3)CCC1CC2)N(Cc1cccs1)c1ccccc1.[Br-] | 8.80 | 3.2 | 8.49 | 9.30 | 6.4 | >6 | –
Cc1cccc(N(Cc2cc(F)c(F)cc2F)C(=O)O[C@H]2C[N+]3(CCCc4ccccc4)CCC2CC3)c1.[Br-] | 8.52 | 3.3 | 7.53 | 9.05 | 33.1 | <6 | –
O=C(O[C@H]1CN2CCC1CC2)N(c1ccccc1)c1ccccc1 | 6.50 | 0.4 | 5.56 | 6.10 | 3.5 | – | –
O=C(O[C@H]1CN2CCC1CC2)N(Cc1ccccc1)Cc1cccs1 | 8.06 | 0.4 | 7.05 | 7.65 | 3.95 | – | –
O=C(O[C@H]1CN2CCC1CC2)N(Cc1ccsc1)c1ccccc1 | 9.40 | 0.4 | 8.33 | 9.00 | 4.7 | <4 | –
O=C(O[C@H]1CN2CCC1CC2)N(Cc1ccccc1)c1ccc(F)cc1 | 8.08 | 0.5 | 6.94 | 7.82 | 7.7 | – | –
O=C(O[C@H]1C[N+]2(CCCc3cccs3)CCC1CC2)N(Cc1ccccc1)c1ccccc1.[Br-] | 8.85 | 2.3 | 8.12 | 9.22 | 12.7 | >6 | –
O=C(O[C@H]1CN2CCC1CC2)N(Cc1ccccc1)c1ccccc1 | 9.40 | 0.3 | 8.43 | 8.92 | 3.1 | – | 1.5
CCCCCN(C(=O)O[C@H]1CN2CCC1CC2)c1ccccc1 | 9.10 | 0.5 | 7.87 | 8.77 | 8 | – | –
CCCCN(C(=O)O[C@H]1C[N+]2(CCOc3ccccc3)CCC1CC2)c1ccccc1.[Br-] | 8.85 | 1.7 | 8.05 | 9.10 | 11.1 | >6 | –
CCCCN(C(=O)O[C@H]1C[N+]2(CCCc3ccccc3)CCC1CC2)c1ccccc1 | 8.60 | 3.1 | 7.75 | 9.10 | 22.1 | – | –
CCCCN(C(=O)O[C@H]1C[N+]2(CCc3ccccc3)CCC1CC2)c1ccccc1 | 7.48 | 1.7 | 6.92 | 7.72 | 6.3 | – | –
CCCN(C(=O)O[C@H]1CN2CCC1CC2)c1ccccc1 | 7.57 | 0.4 | 6.46 | 7.15 | 4.9 | – | –
